Each molecule was assayed on skeletal sarcomere (skeletal myosin with actin, tropomyosin, and troponin complex) (assay: Screen of ATP hydrolysis rate of myosin with calcium-regulated actin filament (actin/tropomyosin/troponin), PK/LDH/NADH coupled enzyme system). Conditions: screen conducted at pCa=6.5; unit not given.
Assay type: biochemical
Method: For example, test compounds can be assayed in a highly parallel fashion by using multiwell plates by placing the compounds either individually in wells or testing them in mixtures. Assay components including the target protein complex, coupling enzymes and substrates, and ATP can then be added to the wells and the absorbance or fluorescence of each well of the plate can be measured with a plate reader.
In some embodiments, the method uses a 384 well plate format and a 25 μL reaction volume. A pyruvate kinase/lactate dehydrogenase coupled enzyme system (Huang T G and Hackney D D. (1994) J Biol Chem 269(23):16493-501) can be used to measure the rate of ATP hydrolysis in each Well. As will be appreciated by those in the art, the assay components are added in buffers and reagents. The incubation periods can be optimized to give adequate detection signals over the background. The assay can be done in real time giving the kinetics of ATP hydrolysis which increases the signal to noise ratio of the assay.
Actin was purified by first preparing an ether powder of cardiac muscle (Zot H G and Potter J D. (1981) Preparative Biochemistry 11:381-395) as described below. Subsequently, actin was cycled between the filamentous and soluble state through rounds of centrifugation and dialysis (Spudich J A and Watt S. (1971) J. Biol. Chem. 246:4866-4871). It was stored in the filamentous state at 4° C.
Tropomyosin was extracted from the ether powder and separated from the other proteins based on pH dependent precipitations followed by successive ammonium sulfate cuts at 53% and 65% (Smillie L B. (1981) Methods Enzymol 85 Pt B:234-41). The troponins were isolated as an intact complex of TnC, TnT, and TnI. Ether powder is extracted in a high salt buffer. Successive ammonium sulfate cuts of 30% and 45% were done; the precipitate was solubilized by dialysis into a low salt buffer and then further purified on a DEAE Toyopearl column with a 25-350 mM KCl gradient.
Just prior to screening, the actin, tropomyosin, and troponin complex are mixed together in the desired ratio (e.g., 7:1:1) to achieve maximal calcium regulation of the actin filament. The screen is conducted at a pCa=6.5. This calcium concentration is in the physiological range during muscle contraction.
To measure the generation of ADP during the reaction, a pyruvate kinase/lactate dehydrogenase/NADH coupled enzyme system (PK/LDH) is added to the actin. The myosin is kept separately. The plates are read in real time so that kinetic curves are obtained. These compounds are in DMSO and were already spotted onto the bottoms of 384 well plates at 10 to 40 μg/ml final concentration.
• 1. Obtain ˜1000 g skeletal muscle, such as rabbit skeletal muscle. • 2. Grind twice; extract with 2 L solution A for 15 min while stirring; add 4 L cold H2O, filter through gauze; dilute with cold H2O to ionic strength of 0.04, (about 10-fold); let settle for 3 h; collect precipitate at 7,000 rpm in GSA rotor for 15 min. • 3. Disperse pellet in 220 ml solution B; dialyze overnight against 6 L solution C; slowly add ˜400 ml equal volume cold distilled H2O; stir for 30 min; centrifuge at 10,000 rpm for 10 min in GSA rotor. • 4. Centrifuge supernatant at 19,000 rpm for 1 h. • 5. Dilute supernatant to ionic strength of 0.04 (˜8-fold); let myosin settle overnight; collect about 5-6 L fluffy myosin precipitate by centrifuging at 10,000 rpm for 10 min in GSA rotor. • 6. Resuspend pellet in minimal volume of solution G; dialyze overnight against 2 L solution D; centrifuge at 19,000 rpm for 2 h, in cellulose nitrate tubes; puncture tubes and separate myosin from fat and insoluble pellet. • 7. Dilute supernatant to 5-10 mg/ml and dialyze against solution E extensively, load onto DEAE-sephadex column. • 8. […]

Row | AC1.4 Median | Molecule
1 | 0.840 | C/C=C\c1ccc2nc(O)n(C(CC)CC)c2n1 [5-((1Z)prop-1-enyl)-3-(ethylpropyl)imidazo[5,4-b]pyridin-2-ol]
2 | 2.366 | 3-(ethylpropyl)-5-ethynylimidazo[5,4-b]pyridin-2-ol
3 | 21.134 | CCC(CC)n1c(O)nc2ccc(Cl)nc21 [5-chloro-3-(ethylpropyl)imidazo[5,4-b]pyridin-2-ol]

The remaining lines, values behind:

Row | Molecule | AC1.4 Median
4 | 3-(ethylpropyl)-5-vinylimidazo[5,4-b]pyridin-2-ol | 3.836
5 | 5-(dimethylamino)-3-(ethylpropyl)imidazo[5,4-b]pyridin-2-ol | 2.611
6 | 3-(ethylpropyl)-5-methylimidazo[5,4-b]pyridin-2-ol | 43.299
7 | CCC(CC)n1c(O)nc2ccc(Br)nc21 [5-bromo-3-(ethylpropyl)imidazo[5,4-b]pyridin-2-ol] | 8.050
